Source: patent US10525024B2, “Methods for rescuing phenobarbital-resistance of seizures by ANA-12 or ANA-12 in combination with CLP290” (THE JOHNS HOPKINS UNIVERSITY, priority 2014, dated 2020)
Values joined by “and” are separate entries in the source; they are usually repeats but may differ in a detail not shown here. Identical values can stand only once. Like-named read-outs stand apart in the source and are kept apart here.

Tests used:
[1] = adult mouse, 0.5 mg/kg IP, cited from earlier work
KCC2 = experiment: Western blot of KCC2 expression, ipsilateral normalized to contralateral hemisphere, post-ligation; format: in vivo, mouse
Method: Western blot at 3 h and 24 h post-ligation. All animals were anesthetized with chloral hydrate (90 mg/ml; IP) before being transcardially perfused. The whole brains of P7 and P10 pups were harvested at either 3 h or 24 h post-ligation, and were frozen as ipsilateral and contralateral hemisphere. The brains were stored in −80° C. until further use. Homogenized whole brain lysates were suspended in cell lysis buffer with 10% protease/phosphatase inhibitor cocktail. Total protein concentrations were quantified through Bradford Assay (Bio-Rad) at 570 nm wavelength, and the samples were diluted for 50 ug of protein at 20 ul of loading volume for gel electrophoresis.
Samples were run on 4-20% gradient 1.5 mm 15 wells SDS gels (Invitrogen) for 100-120 min with 130V, and were transferred onto nitrocellulose membranes for overnight wet-transfer for minimum of 18 hours at 30V. After the transfer, the nitrocellulose membranes underwent 1 h blocking step in odyssey buffer, before overnight incubation in primary antibodies: rabbit α-KCC2 (1:1000, Millipore; Cat. No. 07-432); rabbit α-NKCC1 (1:500, Millipore, Cat. No. AB3560P); mouse α-actin (1:10000, LI-COR Biosciences, Cat. No. 926-42214). On the next day, nitrocellulose membranes were washed with TBS containing tween detergent, and then were incubated in […] secondaries for 1 h (1:5000 for both goat α-mouse 680LT and goat α-rabbit 800CW, LI-COR Biosciences). Chemiluminescent protein bands were analyzed using the Odyssey infrared imaging system 2.1 (LI-COR Biosciences). The optical density of each protein sample was normalized to the actin bands run on each lane for internal control. The expression levels of the proteins of interest in ipsilateral hemispheres were normalized to the same in contralateral hemispheres for each pup. The human brain was recently shown to express two splice variants of NKCC1 (a and b) and the NKCC1 probe used in this study and all previous studies referenced here can only detect the NKCC1a isoform because the targeted epitope site of this probe overlaps with exon 21 that is spliced in the dominant isoform NKCC1b. A reliable pan-NKCC1 probe is not currently available.
A smaller sample of naïve age-matched controls (n=8, 4 each at P8 and P11, equal sexes) was run with the 24 h WB data (brains harvested at P8 and P11, i.e.; 24 h after P7 and P10 ligations). […] This pilot established that contralateral hemispheres were ideal controls for normalization of KCC2 and NKCC1 expression in ipsilateral injured hemispheres for this study similar to previously reported conclusions in another ischemia model.

[2] = test system: CD1 pups with unilateral carotid ligation (ischemic seizures); details: for latency to the 1st-detected seizure: drug given IP immediately after ligation
[3] = cited from earlier work
[4] = test system: CD1 mice with permanent unilateral carotid-ligation (acute ischemic seizures); experiment: Video-EEG seizure burden after carotid ligation at P7, P10, P12 with PB and adjunct BTN (Example 2); format: in vivo, mouse; details: for effect of adjunct BTN on PB-efficacy: BTN 0.1-0.2 mg/kg IP 2 h post-ligation; for reduction of seizure burden: PB 25 mg/kg IP 1 h after ligation
Method: Experimental design. […] All surgery was performed under isoflurane general anesthesia, and all efforts were made to minimize suffering. All litters of CD1 mice were purchased from Charles River Laboratories Inc. (Wilmington, Mass.). Newly born litters of pups arrived at postnatal 3 or 4 days old, and were allowed to acclimate. […] Ninety two pups from 12 litters were included in the video-EEG study (n=48 male and n=44 female). The susceptibility to ischemic seizures was tested at 3 developmental ages i.e., 7, 10 and 12 days old CD1 pups (n=80 ligated and 12 shams). […] The pups underwent permanent ligation and sham surgeries followed by 3 h of EEG recording each, as described in methods (total pups=92 of which ligates P7=29, P10=24 and P12=27 and sham P7=5, P10=4 and P12=3; see Table 2). From the ligated group of pups (total n=80), the ligated-control pups also underwent 3 h EEG recordings to evaluate natural progression of ischemic seizure burden over the duration of treatment efficacy evaluated in this study (total pups n/n=26/80, P7=8, P10=9 and P12=9). […] Since the severity of stroke-injury and seizure varies between pups, the baseline EEG of each pup served as an important internal control. Additionally, since the exact time-point of onset for ischemia in human neonates is not known and may not be a single massive event, the 1 h of non-treatment also served as an important delay expected in the treatment of neonatal seizures that are detected hours after stroke in humans.
Surgical procedure for ischemic insult and electrode implantation. Animals were anesthetized with 2% isoflurane. The right common carotid artery was permanently double-ligated with 6-0 surgisilk and the outer skin closed with 6-0 monofilament nylon to induce ischemia (i.e.; ischemia was induced by unilateral common carotid ligation alone. Unlike other rat models commonly used for neonatal stroke, no global hypoxia is needed to induce acute ischemic seizures). Since the ligated carotid is not transected in our model, the intact pulsating carotid artery with silk ligatures can lead to reperfusion over time in this model. The constrictive efficacy (which drops cerebral perfusion to 40% or less) of the silk ligatures is known to diminish, due to the loss of their tensile strength in-vivo against the pulsating artery as a function of time. […] The animals were then implanted with three sub-dermal EEG electrodes (1 recording, 1 reference, and 1 ground) on the skull overlying the parietal cortex using bregma as a reference. Scalp wire electrodes made for sub-dermal use in humans (IVES EEG; Model # SWE-L25-MA, USA) were implanted, sub-dermally fixed with adhesive, in the pups. […] In this study, the recording and reference electrodes were implanted less than 1 cm apart. Pups were then allowed to recover from anesthesia in a 36° C. isothermal chamber for 3 h recording of video-EEG (FIG. 12). At the end of the recording session, the pups were returned to the dams after removal of the sub-dermal electrodes and application of local anesthetic medication.
In vivo synchronous video-EEG recording. […] Data acquisition was done using PAL-8400 software with synchronous video capture (Pinnacle Technology Inc.). […] The files were stored in .EDF format and scored in real time using the review and scoring software package.

HIE seizures = details: neonates, cited from earlier work
ischemic seizures = experiment: CLP290 in the neonatal ischemic seizure model, 3 h EEG (Example 3); details: 20 mg/kg, n=4, vs vehicle (HPCD)
Method: Arrow heads indicate time of 1 hourly drug injections from start of the 3 h recording.

Structure (SMILES): O=C(Nc1ccccc1C(=O)NC1CCCCNC1=O)c1cc2ccccc2s1 (stereo not drawn) [ANA12, N-[2-[[(Hexahydro-2-oxo-1H-azepin-3-yl)amino]carbonyl]phenyl] benzo[b]thiophene-2-carboxamide]
- brain concentration ([1]; 0.5 h): 400 nM
- brain concentration ([1]; 6 h): 10 nM
- effect on post-ischemic degradation of KCC2 expression (KCC2; 3 h post-ischemia): underwent degradation of KCC2
- downregulation of KCC2 expression (KCC2; P7, 3 h post-ischemia): 15-20%
- KCC2 degradation compared to the contralateral hemisphere (KCC2; P7, 24 h post-ischemia): 15-18%
- effect on post-ischemic degradation of KCC2 expression (KCC2; P7 and P10, 24 h post-ischemia): failed to prevent the post-ischemic KCC2 degradation
- KCC2 degradation compared to the contralateral hemisphere (KCC2; P10, 24 h post-ischemia): ~12%
- latency to the 1st-detected seizure ([2]; P7): 202.3 ± 38.8 s
- post-treatment mortality rate vs vehicle (Fisher's exact test) ([2]; P7 p=0.58, P10 p=1.00): did not show a statistical significance
- anti-seizure effect on EEG seizure burden ([2]; P7 pups): did not have any anti-seizure effect
- age- and sex-dependent seizure susceptibility to ischemic seizures ([2]; P7 vs P10, baseline seizure burden): not altered
- latency to the 1st-detected seizure ([2]; P10): 245.8 ± 39.8 s
- anti-seizure effect on EEG seizure burden ([2]; P10 pups): did not have any anti-seizure effect

Structure (SMILES): CCCCNc1cc(C(=O)O)cc(S(N)(=O)=O)c1Oc1ccccc1 [BTN, bumetanide]
- half-life ([3]; rodents): < 30 min and ~30 min
- effect of adjunct BTN on PB-efficacy ([4]; P7): did not improve PB-efficacy
- anti-seizure effect on total time spent seizing on EEG ([4]; P7, PB 25 mg/kg at 1 h, BTN 0.1-0.2 mg/kg at 2 h post-ligation): failed to have any significant anti-seizure effect
- effect of adjunct BTN on PB-efficacy ([4]; P10): PB-induced seizure suppression was lost
- effect of adjunct BTN on PB-efficacy ([4]; P12): failed to act as an effective adjuvant
- electrographic seizure scores after follow-on BTN ([4]; any age (P7, P10, P12)): did not add any significant therapeutic benefit
- efficacy for HIE seizures (HIE seizures; clinical trial terminated): inefficacy
- safety finding (HIE seizures): ototoxicity
- adjunct anti-seizure effect of BTN given 1 h after PB ([2]; P10, ANA12+PB treated pups, BTN 0.1-0.2 mg/kg IP, 3rd h): significantly blunted PB-efficacy by increasing the seizure burden

Structure (SMILES): O=C1N=C(N2CCCCN2)S/C1=C\c1ccc(F)cc1OC(=O)N1CCCC1 [CLP290]
- anti-seizure activity alone (ischemic seizures): can act independently as an anti-seizure agent

Structure (SMILES): CCC1(c2ccccc2)C(=O)NC(=O)NC1=O [PB, phenobarbital]
- half-life ([3]; immature rodents): ~900 min
- reduction of seizure burden ([4]; P10): 61%
- reduction of seizure burden ([4]; P12): 64%
- percent PB seizure suppression over baseline ([2]; P10 pups, ANA12 2.5 mg/kg IP after ligation (or none), PB 25 mg/kg IP at 1 h, 2nd h vs baseline EEG): 68%
